How the values were obtained:
[1] = biological target: T1, Macrophage metalloelastase (Homo sapiens, UniProt P39900); assay: Inhibition of MMP12 at 500 uM
Target sequence in this assay (P39900 106-470 limits assumed): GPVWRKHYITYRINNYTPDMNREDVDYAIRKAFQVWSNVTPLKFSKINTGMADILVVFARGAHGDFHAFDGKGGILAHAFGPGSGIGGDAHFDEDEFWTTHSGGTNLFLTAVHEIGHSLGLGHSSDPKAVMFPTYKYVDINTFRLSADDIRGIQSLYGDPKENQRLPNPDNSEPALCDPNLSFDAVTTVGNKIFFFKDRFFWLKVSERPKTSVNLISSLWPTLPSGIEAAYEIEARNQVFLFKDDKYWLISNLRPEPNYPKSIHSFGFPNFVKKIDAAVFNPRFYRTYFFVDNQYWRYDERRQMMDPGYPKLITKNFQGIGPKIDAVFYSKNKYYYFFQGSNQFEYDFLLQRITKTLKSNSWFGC

[2] = biological target: T1, Macrophage metalloelastase; assay: Inhibition of MMP12
Target sequence in this assay (P39900 whole entry): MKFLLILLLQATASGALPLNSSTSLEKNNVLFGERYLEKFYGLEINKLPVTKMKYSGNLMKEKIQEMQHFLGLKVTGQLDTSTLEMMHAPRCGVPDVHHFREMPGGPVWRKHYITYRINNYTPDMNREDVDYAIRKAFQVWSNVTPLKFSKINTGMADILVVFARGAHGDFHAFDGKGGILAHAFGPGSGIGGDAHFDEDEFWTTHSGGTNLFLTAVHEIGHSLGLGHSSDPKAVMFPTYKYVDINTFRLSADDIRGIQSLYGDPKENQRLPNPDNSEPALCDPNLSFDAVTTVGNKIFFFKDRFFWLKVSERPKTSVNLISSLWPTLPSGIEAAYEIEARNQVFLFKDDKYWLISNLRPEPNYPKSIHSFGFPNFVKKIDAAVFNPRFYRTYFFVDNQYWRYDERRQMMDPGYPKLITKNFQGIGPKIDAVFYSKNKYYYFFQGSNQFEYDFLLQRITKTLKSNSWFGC

[3] = biological target: T1, Macrophage metalloelastase; settings: 0.0025 uM
Target sequence in this assay (P39900 106-470 limits assumed): as the sequence (P39900 106-470 limits assumed) above
Description: Inhibition of MMP12 at 0.0025 uM

SMILES	inhibition [1] [%]	IC50 [2] [µM]	inhibition [3] [%]
Cc1nc(-c2ccc3c(c2)CCC(=O)N3)cs1	10	5000	–
CNC(=O)[C@H](Cc1c[nH]c2ccccc12)NC(=O)[C@@H](CC(=O)NO)CC(C)C [ILOMASTAT]	–	0.001	75
Cc1ccc2c(c1)NC(=O)CO2	60	355	–
O=C1NC(=O)C(c2ccccc2)N1 (configuration not stated)	100	0.29	–
Cn1cc2c(n1)-c1cc(Cl)ccc1SC2	30	1000	–
COc1ccc2nc[nH]c2c1	25	2000	–
